{
  "source": "PubChem BioAssay (NCI)",
  "assay_in_all_cases": "inhibition of tumour cell growth, NCI panel, 48 h",
  "key": {"NCI-H23 lung": {"tested_on": "NCI-H23 lung"}, "NCI-H460 lung": {"tested_on": "NCI-H460 lung"}, "NCI-H522 lung": {"tested_on": "NCI-H522 lung"}, "NCI/ADR-RES ovarian": {"tested_on": "NCI/ADR-RES ovarian"}, "OVCAR-3 ovarian": {"tested_on": "OVCAR-3 ovarian"}, "OVCAR-4 ovarian": {"tested_on": "OVCAR-4 ovarian"}, "OVCAR-5 ovarian": {"tested_on": "OVCAR-5 ovarian"}, "OVCAR-8 ovarian": {"tested_on": "OVCAR-8 ovarian"}, "PC-3 prostate": {"tested_on": "PC-3 prostate"}, "RPMI-8226 leukemia": {"tested_on": "RPMI-8226 leukemia"}, "RXF 393 renal": {"tested_on": "RXF 393 renal"}, "SF-268 CNS": {"tested_on": "SF-268 CNS"}, "SF-295 CNS": {"tested_on": "SF-295 CNS"}, "SF-539 CNS": {"tested_on": "SF-539 CNS"}, "SK-MEL-2 melanoma": {"tested_on": "SK-MEL-2 melanoma"}, "SK-MEL-28 melanoma": {"tested_on": "SK-MEL-28 melanoma"}, "SK-MEL-5 melanoma": {"tested_on": "SK-MEL-5 melanoma"}, "SK-OV-3 ovarian": {"tested_on": "SK-OV-3 ovarian"}, "SN12C renal": {"tested_on": "SN12C renal"}, "SNB-19 CNS": {"tested_on": "SNB-19 CNS"}, "SNB-75 CNS": {"tested_on": "SNB-75 CNS"}, "SR leukemia": {"tested_on": "SR leukemia"}, "SW-620 colon": {"tested_on": "SW-620 colon"}, "T-47D breast": {"tested_on": "T-47D breast"}, "TK-10 renal": {"tested_on": "TK-10 renal"}, "U251 CNS": {"tested_on": "U251 CNS"}, "UACC-257 melanoma": {"tested_on": "UACC-257 melanoma"}, "UACC-62 melanoma": {"tested_on": "UACC-62 melanoma"}, "UO-31 renal": {"tested_on": "UO-31 renal"}},
  "note": "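Cells were grown in 96-well plates and exposed to each compound for 48 hours at five concentrations; endpoints were interpolated linearly between bracketing concentrations, or set to the highest concentration if not reached. GI50 is the concentration that inhibits growth by half. TGI: total growth inhibition.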",
  "data": [
    {"compound": "O=C(/C=C/c1cccnc1)c1ccccc1", "values": [
      {"measurement": "TGI", "setting": "NCI-H23 lung", "value": 39.5, "unit": "µM"},
      {"measurement": "GI50", "setting": "NCI-H460 lung", "value": 7.07, "unit": "µM"},
      {"measurement": "TGI", "setting": "NCI-H460 lung", "value": 21.2, "unit": "µM"},
      {"measurement": "GI50", "setting": "NCI-H522 lung", "value": 1670, "unit": "nM"},
      {"measurement": "TGI", "setting": "NCI-H522 lung", "value": 4.65, "unit": "µM"},
      {"measurement": "GI50", "setting": "NCI/ADR-RES ovarian", "value": 14.3, "unit": "µM"},
      {"measurement": "TGI", "setting": "NCI/ADR-RES ovarian", "value": 36, "unit": "µM"},
      {"measurement": "GI50", "setting": "OVCAR-3 ovarian", "value": 4.25, "unit": "µM"},
      {"measurement": "TGI", "setting": "OVCAR-3 ovarian", "value": 15.7, "unit": "µM"},
      {"measurement": "GI50", "setting": "OVCAR-4 ovarian", "value": 13, "unit": "µM"},
      {"measurement": "TGI", "setting": "OVCAR-4 ovarian", "value": 26.5, "unit": "µM"},
      {"measurement": "GI50", "setting": "OVCAR-5 ovarian", "value": 14.7, "unit": "µM"},
      {"measurement": "TGI", "setting": "OVCAR-5 ovarian", "value": 33.3, "unit": "µM"},
      {"measurement": "GI50", "setting": "OVCAR-8 ovarian", "value": 12.2, "unit": "µM"},
      {"measurement": "TGI", "setting": "OVCAR-8 ovarian", "value": 25.9, "unit": "µM"},
      {"measurement": "GI50", "setting": "PC-3 prostate", "value": 11, "unit": "µM"},
      {"measurement": "TGI", "setting": "PC-3 prostate", "value": 26.5, "unit": "µM"},
      {"measurement": "GI50", "setting": "RPMI-8226 leukemia", "value": 2460, "unit": "nM"},
      {"measurement": "TGI", "setting": "RPMI-8226 leukemia", "value": 6.24, "unit": "µM"},
      {"measurement": "GI50", "setting": "RXF 393 renal", "value": 10.9, "unit": "µM"},
      {"measurement": "TGI", "setting": "RXF 393 renal", "value": 23.2, "unit": "µM"},
      {"measurement": "GI50", "setting": "SF-268 CNS", "value": 14.4, "unit": "µM"},
      {"measurement": "TGI", "setting": "SF-268 CNS", "value": 30, "unit": "µM"},
      {"measurement": "GI50", "setting": "SF-295 CNS", "value": 14.3, "unit": "µM"},
      {"measurement": "TGI", "setting": "SF-295 CNS", "value": 29.3, "unit": "µM"},
      {"measurement": "GI50", "setting": "SF-539 CNS", "value": 13.3, "unit": "µM"},
      {"measurement": "TGI", "setting": "SF-539 CNS", "value": 28.6, "unit": "µM"},
      {"measurement": "GI50", "setting": "SK-MEL-2 melanoma", "value": 13.5, "unit": "µM"},
      {"measurement": "TGI", "setting": "SK-MEL-2 melanoma", "value": 27, "unit": "µM"},
      {"measurement": "GI50", "setting": "SK-MEL-28 melanoma", "value": 13.1, "unit": "µM"},
      {"measurement": "TGI", "setting": "SK-MEL-28 melanoma", "value": 25.8, "unit": "µM"},
      {"measurement": "GI50", "setting": "SK-MEL-5 melanoma", "value": 14.3, "unit": "µM"},
      {"measurement": "TGI", "setting": "SK-MEL-5 melanoma", "value": 27.5, "unit": "µM"},
      {"measurement": "GI50", "setting": "SK-OV-3 ovarian", "value": 14.6, "unit": "µM"},
      {"measurement": "TGI", "setting": "SK-OV-3 ovarian", "value": 27.9, "unit": "µM"},
      {"measurement": "GI50", "setting": "SN12C renal", "value": 12.2, "unit": "µM"},
      {"measurement": "TGI", "setting": "SN12C renal", "value": 25.9, "unit": "µM"},
      {"measurement": "GI50", "setting": "SNB-19 CNS", "value": 11.7, "unit": "µM"},
      {"measurement": "TGI", "setting": "SNB-19 CNS", "value": 25.2, "unit": "µM"},
      {"measurement": "GI50", "setting": "SNB-75 CNS", "value": 15.6, "unit": "µM"},
      {"measurement": "TGI", "setting": "SNB-75 CNS", "value": 34.6, "unit": "µM"},
      {"measurement": "GI50", "setting": "SR leukemia", "value": 2000, "unit": "nM"},
      {"measurement": "TGI", "setting": "SR leukemia", "value": 6.21, "unit": "µM"},
      {"measurement": "GI50", "setting": "SW-620 colon", "value": 1920, "unit": "nM"},
      {"measurement": "TGI", "setting": "SW-620 colon", "value": 4.21, "unit": "µM"},
      {"measurement": "GI50", "setting": "T-47D breast", "value": 12.4, "unit": "µM"},
      {"measurement": "TGI", "setting": "T-47D breast", "value": 28.6, "unit": "µM"},
      {"measurement": "GI50", "setting": "TK-10 renal", "value": 13.9, "unit": "µM"},
      {"measurement": "TGI", "setting": "TK-10 renal", "value": 27.1, "unit": "µM"},
      {"measurement": "GI50", "setting": "U251 CNS", "value": 3.85, "unit": "µM"},
      {"measurement": "TGI", "setting": "U251 CNS", "value": 15.1, "unit": "µM"},
      {"measurement": "GI50", "setting": "UACC-257 melanoma", "value": 10.4, "unit": "µM"},
      {"measurement": "TGI", "setting": "UACC-257 melanoma", "value": 22.7, "unit": "µM"},
      {"measurement": "GI50", "setting": "UACC-62 melanoma", "value": 5.14, "unit": "µM"},
      {"measurement": "TGI", "setting": "UACC-62 melanoma", "value": 19.2, "unit": "µM"},
      {"measurement": "GI50", "setting": "UO-31 renal", "value": 11.4, "unit": "µM"},
      {"measurement": "TGI", "setting": "UO-31 renal", "value": 25.5, "unit": "µM"}
    ]}
  ]
}
